Measurements reported in patent EP4699605A1, “USE OF NOVEL COMPOUND FOR TREATING INTRACTABLE DISEASES” (YJ Cerapeutics Inc., priority 2023, dated 2024).

Tests used:
Format in all cases: in vivo, Sprague-Dawley rats
[1] = tested on: astrocytes; test: Astrocyte activation in spinal cord of SNI model (GFAP immunohistochemistry and Western blot); details: L4-5 spinal cord
Method: To be used as a peripheral nerve injury animal model, a sciatic nerve injury (SNI) model was prepared (FIG. 1C). Specifically, 200 to 220 g of male adult Sprague-Dawley rats were anesthetized by intraperitoneal injection of chloral hydrate (500 mg/kg), and then three terminal branches (tibial, common peroneal, and sural nerves) of the right sciatic nerve were approached, and the tibia nerve and the peroneal nerve were tightly ligated with 4-0 silk, and neurectomy was performed at a distal 3 mm position of the ligation site. At this time, a Sham group was a group that exposed only the sciatic nerve without damage.
The activation of astrocytes in the spinal cord, known to play an important role in the process of inducing/persisting neuropathic pain, was confirmed by immunohistochemical staining and Western blot analysis using an anti-GFAP antibody against an intermediate filament protein, Glial fibrillary acidic protein (GFAP) of astrocytes, a marker of astrocyte activation, as in Example 3-1.

[2] = tested on: JAK/STAT3 pathway; test: Signaling pathway analysis in SNI model (Western blot): JAK/STAT3; details: 4 weeks after nerve injury
Method: To determine through which signaling pathway YJ102 inhibited a neuroinflammatory response, there was analyzed increased expression and activation of histone demethylase JMJD3 and expression changes of factors associated with JAK/STAT3 pathway, mTOR pathway, and TRPM7-mediated pathway, which were known as important regulatory mechanisms and epigenetic regulators mediating the neuroinflammatory response, in the tissues of the SNI animal model 4 weeks after nerve injury.

[3] = tested on: traumatic spinal cord injury (SCI) model; test: Urinary function analysis in SCI model (residual urine volume, UBFS, bladder size and weight)
Method: To be used as a central nerve injury animal model, a traumatic spinal cord injury (SCI) model was prepared (FIG. 1A). Specifically, 230 to 250 g of male adult Sprague-Dawley rats were anesthetized by intraperitoneal injection of chloral hydrate (500 mg/kg), and then the back and neck regions were shaved, and the spinal cord under the back and neck regions was exposed without damaging the dura mater, and a laminectomy was performed at T9 to T10 levels. To stabilize the spine, the spinous processes of T8 and T11 were fixed, and the spine was damaged by free-falling a 10 g weight from a height of 25 mm using an NYU impactor onto the back surface of the exposed spinal cord and then the rats were left in a temperature and humidity-controlled chamber overnight while covering the muscles and skin. After surgery, the rats were subcutaneously injected with a supplement solution (5 ml, lactated ringer) and injected with antibiotics (gentamicin, 5 mg/kg, intramuscular injection) once daily for 5 days. The body weight, remaining food, and the weight of water were confirmed and recorded for all animals, and the bladder was emptied twice daily by passive bladder massage until reflex micturition was established. At this time, a Sham group was a group that was subjected to only laminectomy without damage.
In order to confirm the effect of YJ102 (Chemical Formula 1), a compound of the present disclosure, on urinary disturbances caused by spinal cord injury, immediately after preparing the traumatic spinal cord injury (SCI) model (FIG. 1A) prepared in Example 1 above, YJ102 was dissolved in DMSO, methyl pyrrolidinone, and water (1 : 1.5 : 1) and administered intraperitoneally at 5 mg/kg, and then intraperitoneally administered at 24-hour intervals for 7 days from the next day. Thereafter, the effect of improving bladder functions was analyzed through a residual urine volume test and a urinary bladder function score (UBFS). At this time, a Vehicle group was administered with the same amount of a solution of DMSO, methyl pyrrolidinone, and water. Specifically, in order to determine the amount of urine remaining in the bladder after spinal cord injury, bladder extrusion was performed twice a day by applying pressure to the central bottom portion of the lower abdomen using the index and middle fingers to empty the bladder, and the expelled urine was collected in a catheter and its volume was recorded. […]

[4] = tested on: ZO-1 and occludin; test: Urothelial tight junction proteins in bladder after SCI (Western blot, immunofluorescence)
From the text: When bladder dysfunction occurred due to spinal cord injury, cystitis, etc., a decrease in tight junction protein in the urothelium in contact with urine occurred, which increased the permeability of the bladder wall to introduce the harmful substances into the tissue, and caused the death of the urothelium serving as a barrier, and an increase in inflammatory response in the bladder. In order to determine what effect the compound YJ102 of the present disclosure had on these pathological processes, the expression of tight junction proteins ZO-1 and occludin was confirmed by Western blot analysis and immunofluorescence staining, and the introduction of neutrophils and macrophages into the bladder was confirmed by immunofluorescence staining. Specifically, the cut bladder tissue sections were frozen in liquid nitrogen, ground in a mortar and pestle to be completely lysed, and homogenized by adding Lysis Buffer [50 mM Tris-HCl (pH 7.4), 150 mM NaCl, 2 mM MgCl2, 0.1% NP40]. The homogenized tissue sections were transferred to a microcentrifuge tube, rock at 4°C for 20 minutes, and then centrifuged at 25,000 × g for 10 minutes. The supernatant was transferred to a new microcentrifuge, the protein concentrations were measured using a BCA kit, and then samples for Western blot were prepared by adding a 1X sample buffer and boiling for 5 minutes. For Western blot, the same amounts of proteins were loaded onto SDS-PAGE, electrophored, and then transferred to a nitrocellulose membrane, reacted with primary antibodies Occludin (Invitrogen), ZO-1 (Invitrogen), ED-1 (Serotec), and β-actin (Sigma), and then blotted with secondary antibodies. In addition, for immunofluorescence staining, 10 µm-thick bladder tissue sections were treated with primary antibodies ZO-1 (Invitrogen), Occludin (Invitrogen), MPO (DAKO), and ED-1 (Serotec), respectively, and reacted according to a manufacturer's protocol, and then color-developed with secondary antibodies (Jackson immunoresearh).

[5] = tested on: proNGF; test: NGF/proNGF expression in bladder after SCI (RT-PCR, Western blot); details: bladder tissue after spinal cord injury
Method: In order to determine whether YJ102 affected the production of proNGF as a ligand of p75, the expression of proNGF in the bladder was confirmed by RT-PCR, Western blot analysis, and immunofluorescence staining. In addition, for further verification, a macrophage cell line Raw 264.7 (Korea Cell Line Bank, Seoul, Korea) was stimulated with 1 µg/ml of LPS, and the effect of YJ102 on the production of proNGF was investigated. At this time, YJ102 was dissolved in DMSO and treated 30 minutes before LPS treatment.

[6] = day 1 after spinal cord injury (SCI 1d), Western blot

Question: Which results are given for `CCc1ccc(N(C(=O)COC)c2nc3cc(Cl)ccc3o2)cc1` [YJ102]?
Answer: GFAP expression intensity [1]: significantly decreased; phosphorylation of JAK2 [2]: significantly reducing; phosphorylation of STAT3 [2]: significantly reducing; bladder size ([3]; 5 mg/kg intraperitoneally): significantly reduced; bladder weight ([3]; 5 mg/kg intraperitoneally): significantly reduced; residual urine volume ([3]; 5 mg/kg intraperitoneally at 24-hour intervals, vs Veh group, from the first day of administration): significantly reduced; bladder function restoration using the UBFS ([3]; 5 mg/kg intraperitoneally, vs Vehicle group on day 3 and day 7 after spinal cord injury): significantly increased; reduction in Occludin in the urothelium ([4]; after spinal cord injury, immunofluorescence staining): inhibited; reduction of the amount of Occludin [4, 6]: significantly inhibited; reduction of the amount of ZO-1 [4, 6]: significantly inhibited; NGF mRNA expression ([5]; RT-PCR): significantly inhibited; proNGF production ([5]; Western blot): significantly inhibited
